According to ChEMBL document CHEMBL4602620, “N,O-Dialkyl deoxynojirimycin derivatives as CERT START domain ligands” (Bioorg Med Chem Lett, 2020):

Legend:
[1] = target: T1, Ceramide transfer protein (Homo sapiens) (UniProt Q9Y5P4); assay: Displacement of fluorescent tagged ceramide from immobilized His-tagged CERT START domain (unknown origin) assessed as reduction in residual fluorescence activity by FLINT assay relative to control; set-up: concentration or dose not given beside the values; conditions: concentration not given here
T1 sequence (whole entry): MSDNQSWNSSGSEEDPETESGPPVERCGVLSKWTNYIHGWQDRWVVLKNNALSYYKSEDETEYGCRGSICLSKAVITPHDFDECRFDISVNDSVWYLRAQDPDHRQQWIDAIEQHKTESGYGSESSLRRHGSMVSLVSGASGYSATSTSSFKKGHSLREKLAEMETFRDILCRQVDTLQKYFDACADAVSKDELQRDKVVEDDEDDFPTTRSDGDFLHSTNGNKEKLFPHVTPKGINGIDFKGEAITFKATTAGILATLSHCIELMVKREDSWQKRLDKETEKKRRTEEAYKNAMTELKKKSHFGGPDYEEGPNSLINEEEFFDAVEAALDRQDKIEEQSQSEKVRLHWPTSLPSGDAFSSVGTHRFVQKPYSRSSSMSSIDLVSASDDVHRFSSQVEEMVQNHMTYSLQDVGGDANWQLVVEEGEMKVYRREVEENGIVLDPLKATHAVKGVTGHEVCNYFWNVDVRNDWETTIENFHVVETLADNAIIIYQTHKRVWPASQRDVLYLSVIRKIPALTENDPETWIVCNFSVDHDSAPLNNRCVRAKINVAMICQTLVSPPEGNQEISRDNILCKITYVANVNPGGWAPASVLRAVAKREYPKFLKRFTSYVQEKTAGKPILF

[2] = tested on: Prunus dulcis; assay: Inhibition of almond beta-glucosidase at 0.2 mM relative to control
[3] = tested on: Aspergillus niger; assay: Inhibition of Aspergillus niger amyloglucosidase at 0.2 mM relative to control
[4] = tested on: Saccharomyces cerevisiae; assay: Inhibition of Saccharomyces cerevisiae alpha-glucosidase at 0.2 mM relative to control

An inhibition [1] of 25% was found for `CCCCCCCCCCCC(=O)N[C@@H](CO)C[C@H](O)c1ccccc1` in this work.
An inhibition [2] of 0.65%, an inhibition [1] of 40% and an inhibition [3] of 6% were found for `CCCCCCCCCCCCO[C@H]1CN(CCCCCCCCCCCC)[C@H](CO)[C@@H](O)[C@@H]1O` in this work. It also gave an inhibition [4] of 5.1%.
An inhibition [1] of 25% was found for `CCCCCCCCCCCCC/C=C/[C@@H](O)[C@H](CO)NC(=O)CCCCCCCCCCCCCCC` in this work.
An inhibition [1] of 25% was found for `CCCCCCCCCCCCO[C@H]1CN(CCCCCCCCCCCC)C[C@@H](O)[C@@H]1O` in this work.
An inhibition [2] of 1.7%, an inhibition [1] of 20% and an inhibition [3] of 11% were found for `CCCCCCCCCCCCO[C@H]1[C@H](O)[C@@H](O)CN(CCCCCCCCCCCC)[C@@H]1CO` in this work. For the same compound, the inhibition [4] was 7.3%.
An inhibition [2] of 39%, an inhibition [1] of 25% and an inhibition [3] of 88% were found for `CCCCCCCCCCCCN1C[C@H](O)[C@@H](O)[C@H](O)[C@H]1CO` in this work. It also gave an inhibition [4] of 13%.
